Measurements from patent US20150374673A1, “Combination Therapy for the Treatment of Nosocomial Pneumonia” (priority 2013, published 2015).
“And” between values parts separate entries of the source, which are not always exact repeats. Identical values can stand only once. Like-named read-outs stand apart in the source and are kept apart here.

Key:
[1] = system: P. aeruginosa; experiment: Neutropenic CD-1 mice with experimental pneumonia (lung infection), exposure response of ceftazidime q2h and avibactam q2h or q8h; assay type: in vivo, Pseudomonas aeruginosa; settings: for % fT > CT1 q2 / % fT > CT1 q8 / TDD AVI q2h / TDD AVI q8h / log TDD AVI q2h / log TDD AVI q8h: Dose CAZ 16 mg/kg q2h; for % fT > CT1 q2 / % fT > CT1 q8: CT 1 mg/L; for TDD AVI q2h / TDD AVI q8h / log TDD AVI q2h / log TDD AVI q8h: static effect; for factor by which daily dose for static effect was lower q2h than q8h: with ceftazidime q2h
Experimental: CD-1 neutropenic mice were infected with approx. 10^6 cfu in the lung by instillation through the nares under light anaesthesia. […] For avibactam the % time of the dosing interval above a virtual in vivo threshold concentration, CT, % fT>CT, were calculated (CT of 0.25, 1 and 4 mg/L).
Outbred female CD-1 mice (Charles River, Netherlands), 4 to 5 weeks old, weighing 20 to 25 g were used in the experiments. Granulocytopenia was induced by two doses of cyclophosphamide s.c. four days (150 mg/kg) and one day (100 mg/kg) before the infection experiment.
Neutropenic mice were infected with one P. aeruginosa strain per animal. 0.05 mL of bacterial suspension consisting of approximately 10^5-10^6 bacteria was inoculated intra-nasally with a syringe under light anaesthesia with isoflurane. […] All dosing regimens were performed in at least two animals. At t=0 h, 2 mice were humanely sacrificed to determine the initial inoculum just before starting treatment. All other animals were sacrificed at t=24 h unless the welfare of the animals indicated earlier termination was necessary, following animal welfare regulations. Lungs were taken and moved to a pre-cooled 10-mL plastic tube (Transport Tube, Omnilabo, NL) containing 2 mL phosphate buffered saline (PBS; NaCl 8.00 g/L, Na2HPO4*2 H2O 1.44 g/L, KH2PO4 0.26 g/L, pH 7.2-7.4). Subsequently lungs were grounded using an Ultra-Turrax (IKA Labortechnik, Germany). A tenfold dilution series was prepared and 3×10 μL plated (Chromagar, Biomerieux, NL) per dilution. The following day, colonies were counted and the number of cfu per lung calculated.
This regimen was chosen because of the sensitivity to changes in effects of avibactam. The amount of avibactam administered varied in frequency and dose. […] The drug ? effect was determined as the difference between the log10 cfu values at t=24 h and t=0 h (mean value of 2 mice) expressed as dcfu. Free drug concentrations were used in all calculations. […] For avibactam % fT>CT, the % time of the dosing interval above threshold concentration CT were calculated for CT of 0.25, 1 and 4 mg/L. The CT values were chosen based on the activity of avibactam in vitro, 4 mg/L being used in susceptibility testing, but lower concentrations also being active as determined in in vitro checkerboard studies.

[2] = system: P. aeruginosa; experiment: MIC of the P. aeruginosa isolates used in the in vivo efficacy studies; assay type: cell-based; settings: Pseudomonas aeruginosa
[3] = system: S. aureus; experiment: Initial MIC, microbroth dilution (CLSI), avibactam 4 mg/L; assay type: cell-based; settings: Staphylococcus aureus, read-out: MIC
Text: (§1) All MIC determinations including those performed in the checkerboard assay were done in cation-adjusted Mueller-Hinton broth (purchased from Becton Dickinson, Oxford UK). […]

[4] = system: E. cloacae; experiment: as above; assay type: cell-based; settings: Enterobacter cloacae
Text: as §1

[5] = system: E. coli; experiment: as above; assay type: cell-based; settings: Escherichia coli, read-out: MIC
Text: as §1

[6] = system: E. faecalis; experiment: as above; assay type: cell-based
Text: as §1

[7] = Serum and ELF pharmacokinetics of ceftazidime regimens (human simulated and directed ELF fT>MIC) in infected mice; assay type: in vivo, female ICR mice; settings: MICs of 32 μg/mL; ceftazidime directed ELF fT>MIC regimen
Experimental: Confirmatory pharmacokinetic studies were undertaken in infected mice and pharmacodynamic analyses and an assessment of ELF fT>MIC was made from the resulting concentration-time profile.
It has been observed in surveillance studies that the MIC90 for ceftazidime-avibactam against P. aeruginosa is 8 μg/mL (10-12). Given this, there are few isolates with higher MICs and the number that would grow within the murine lung infection model is even less. […] Doses of the previous humanized regimen described above were […] throughout the dosing period and further pharmacokinetic studies were performed. […] Mice were euthanized and serum and BAL samples were collected, as described above, at predetermined times.

[8] = system: Gram-positive isolates; experiment: MIC alone compared with MIC in presence of Cmax and 0.5×Cmax of colistin, all Gram-positive isolates; assay type: cell-based; settings: with Cmax and 0.5×Cmax of colistin
Text: A mean FICI was taken from each combination checkerboard and interpreted according to accepted criteria. […] Four highly-expressed AmpC, eight extended-spectrum beta-lactamase (ESBL) including two CTX-M-15 and five KPC producing Enterobacteriaceae and P. aeruginosa were included as well as representatives from each species with basal MICs. Three S. aureus and three E. faecalis were also included.

[9] = q2h and q8h, strains 11 and 18, lung

Compound: NC(=O)[C@@H]1CC[C@@H]2CN1C(=O)N2OS(=O)(=O)[O-].[Na+] [avibactam, [(2S,5R)-2-carbamoyl-7-oxo-1,6-diazabicyclo[3.2.1]octan-6-yl]hydrogen sulfate]
- efficacy by dosing frequency ([1]; avibactam q2h or q8h with ceftazidime q2h, lung): q2h regimen was more efficacious than the q8h regimen
- effect on static % fT>MIC of ceftazidime ([1]; lung infection, all strains): reduced
- % fT > CT1 q2, mean ([1]; mean of strains 18 and 11 (sd 2.7), lung infection, avibactam q2h): 21.6%
- % fT > CT1 q8, mean ([1]; mean of strains 18 and 11 (sd 3.4), lung infection, avibactam q8h): 18.5%
- overall mean % fT>CT 1 mg/L for static effect [1, 9]: 20.1%
- range of % fT>CT 1 mg/L for static effect [1, 9]: 16.1-23.5
- % fT > CT1 q2 ([1]; strain 11, lung infection, avibactam q2h): 19.7%
- % fT > CT1 q8 ([1]; strain 11, lung infection, avibactam q8h): 20.9%
- TDD AVI q2h ([1]; strain 11, lung infection): 45.65 mg/kg
- TDD AVI q8h ([1]; strain 11, lung infection): 463.29 mg/kg
- log TDD AVI q2h ([1]; strain 11, lung infection): 1.66 mg/kg
- log TDD AVI q8h ([1]; strain 11, lung infection): 2.67 mg/kg
- factor by which daily dose for static effect was lower q2h than q8h ([1]; strain 11, lung): 2.7
- % fT > CT1 q2 ([1]; strain 18, lung infection, avibactam q2h): 23.5%
- % fT > CT1 q8 ([1]; strain 18, lung infection, avibactam q8h): 16.1%
- TDD AVI q2h ([1]; strain 18, lung infection): 56.65 mg/kg
- TDD AVI q8h ([1]; strain 18, lung infection): 150.57 mg/kg
- log TDD AVI q2h ([1]; strain 18, lung infection): 1.75 mg/kg
- log TDD AVI q8h ([1]; strain 18, lung infection): 2.18 mg/kg
- factor by which daily dose for static effect was lower q2h than q8h ([1]; strain 18, lung): 10.1
- % fT>CT 1 mg/L estimates for stasis over 24 h ([1]; the other two of strains 7, 5, 19 and 1 (not 1 and 19), ceftazidime q2h, lung): 21.4% and 19.4%
- % fT>CT 1 mg/L estimates ([1]; two control strains, lung): 22.4% and 21.6%

Compound: CC(C)(O/N=C(\C(=O)N[C@@H]1C(=O)N2C(C(=O)[O-])=C(C[n+]3ccccc3)CS[C@H]12)c1csc(N)n1)C(=O)O [ceftazidime, (6R,7R)-7-[[(2Z)-2-(2-amino-1,3-thiazol-4-yl)-2-(1-hydroxy-2-methyl-1-oxopropan-2-yl)oxyiminoacetyl]amino]-8-oxo-3-(pyridin-1-ium-1-ylmethyl)-5-thia-1-azabicyclo[4.2.0]oct-2-ene-2-carboxylate pentahydrate]
- MIC ([2]; P. aeruginosa PSA 1-25): 128 µg/mL
- MIC ([2]; P. aeruginosa PSA 1-29): 32 µg/mL
- MIC ([2]; P. aeruginosa PSA 2-69): 64 µg/mL
- MIC ([2]; P. aeruginosa PSA 3-9): > 128 µg/mL
- MIC ([2]; P. aeruginosa PSA 4-32): 32 µg/mL
- MIC ([2]; P. aeruginosa PSA 4-36): 64 µg/mL
- MIC ([2]; P. aeruginosa PSA 4-39): 32 µg/mL
- MIC ([2]; P. aeruginosa PSA 4-84): 64 µg/mL
- MIC ([2]; P. aeruginosa PSA 7-6): 128 µg/mL
- MIC ([2]; P. aeruginosa PSA 8-16): 64 µg/mL
- MIC ([2]; P. aeruginosa PSA 11-54): 32 µg/mL
- MIC ([2]; P. aeruginosa PSA 14-28): 128 µg/mL
- MIC ([2]; P. aeruginosa PSA 22): 64 µg/mL
- MIC ([2]; P. aeruginosa PSA 24-2): 32 µg/mL
- MIC ([2]; P. aeruginosa PSA 28-19): 128 µg/mL
- MIC ([2]; P. aeruginosa PSA 37-8): 64 µg/mL
- MIC ([2]; P. aeruginosa PSA 856): 8 µg/mL
- MIC ([2]; P. aeruginosa PSA 968): 32 µg/mL
- MIC ([2]; P. aeruginosa PSA 971): 16 µg/mL
- MIC ([2]; P. aeruginosa PSA 1382): 128 µg/mL
- MIC ([2]; P. aeruginosa PSA 1383): 64 µg/mL
- MIC ([2]; P. aeruginosa PSA 1384): 64 µg/mL
- MIC ([2]; P. aeruginosa PSA 1386): 128 µg/mL
- MIC ([2]; P. aeruginosa PSA 1387): 32 µg/mL
- MIC ([2]; P. aeruginosa PSA 1388): 128 µg/mL
- MIC ([2]; P. aeruginosa PSA 1389): 64 µg/mL
- MIC ([2]; P. aeruginosa PSA 1391): 128 µg/mL
- MIC ([2]; P. aeruginosa PSA 1394): 64 µg/mL
- MIC ([3]; isolate 22 S. aureus Basal MICs): 8 µg/mL
- MIC ([3]; isolate 23 S. aureus Basal MICs, Penicillinase+): 16 µg/mL
- MIC ([3]; isolate 24 S. aureus Basal MICs, Penicillinase+): 8 µg/mL
- MIC ([4]; isolate 1 E. cloacae Basal MICs, read-out: MIC): 0.12 µg/mL
- MIC ([4]; isolate 2 E. cloacae Derepressed AmpC): 256 µg/mL
- MIC ([4]; isolate 3 E. cloacae Derepressed AmpC): 128 µg/mL
- MIC ([5]; isolate 5 E. coli CTX-M-15): 64 µg/mL
- MIC ([5]; isolate 6 E. coli TEM-4): 8 µg/mL
- MIC ([5]; isolate 7 E. coli SHV-12): 16 µg/mL
- MIC ([5]; isolate 8 E. coli SHV-2): 1 µg/mL
- MIC ([6]; Enterococcus faecalis): 256 µg/mL
- MIC ([6]; Enterococcus faecalis, isolate 25 E. faecalis Basal MICs, read-out: MIC): > 512 µg/mL
- MIC ([6]; isolate 27 E. faecalis Basal MICs): 256 µg/mL
- ELF fT>MIC [7]: 12%
- MIC alone and in combination [8]: remained within one doubling dilution in all cases
